Reference: patent publication US6833374B2, “Dihydropyrazolo[3,4-d]thieno[2,3-B]pyridinone inhibitors of B7-1” (Wyeth, priority 2002, dated 2004)

Molecular target: T1, B7-1/CD28 (Homo sapiens, UniProt P33681)
T1 sequence (P33681 35-242 limits assumed): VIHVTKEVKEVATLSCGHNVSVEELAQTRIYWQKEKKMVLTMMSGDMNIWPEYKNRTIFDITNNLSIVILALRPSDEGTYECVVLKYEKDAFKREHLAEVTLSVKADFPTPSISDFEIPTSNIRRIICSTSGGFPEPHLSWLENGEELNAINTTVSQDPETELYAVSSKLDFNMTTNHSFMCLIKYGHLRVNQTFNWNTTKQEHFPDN
Experiment: CD28/B7-1 ELISA (B7-1/CD28 binding inhibition)
Conditions: CD28-Fc coated wells, B7-1-Fc-biotin detection complex
Description: Evaluation of B7-1/CD28 Binding Inhibition for Test Compounds
Wells are coated with 300 ng CD28-Fc in carbonate buffer (pH 9.4) overnight at 4° C., blocked with 1% bovine serum albumin in tris-buffered saline (TBS) for 1 h at 22° C. and washed 3 times in TBS prior to assay. The detection complex is formed as follows: B7-1-Fc-biotin, prepared using NHS-LC-biotin (Pierce #21335) according to the manufacturers instructions (4.1 moles biotin/mole Fc), is added at 0.8 ug/ml to streptavidin-alkaline phosphatase (Caltag Sa1008 at 1:1000 in TBS. Gradient dilutions of test compound in dimethylsulfoxide (1% final) are added to this complex and incubated 30 min. at 22° C. Detection complex (+/− inhibitors) is then added to the CD28 coated wells for 25 min. at 22° C., washed 5 times with TBS, developed with the calorimetric substrate pNPP (Pierce #34045) in diethanolamine/MgCl2 buffer (pH 9.5) and read at 405 nm. The inhibition constant (IC50) is calculated by subtracting the background binding and comparing to uninhibited (DMSO alone) controls. The inhibition constant represents the concentration of test compound required to achieve 50% inhibition.

Row | Structure (SMILES) | IC50
1 | O=c1c2c(-c3cccc(C(F)(F)F)c3)nc3sccc3c2[nH]n1-c1ccc(Cl)cc1 [Example 4, 2-(4-chlorophenyl)-4-[3-(trifluoromethyl)phenyl]-1,2-dihydro-3H-pyrazolo-[3,4-d]thieno[2,3-b]pyridin-3-one] | 500 nM
2 | O=c1c2c(-c3cccc(C(F)(F)F)c3)nc3sccc3c2[nH]n1-c1ccc(F)cc1 [Example 3, 2-(4-Fluorophenyl)-4-[3-(trifluoromethyl)phenyl]1,2-dihydro-3H-pyrazolo[3,4-d]thieno[2,3-b]pyridin-3-one] | 600 nM
